These results are taken from patent publication EP0672658B1, “Antithrombotic agents” (priority 1994, dated 1995).

Series [1] concerns human or animal plasma. Description: Anticoagulation determination in plasma: prothrombin time (PT). The series is classed as biochemical. As to conditions: concentration doubling prothrombin time. In a few lines:
(§1)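 Compounds spiked over a concentration range into citrated human, dog or rat plasma. PT used Thromboplastin-C; APTT used Actin reagent 120 s then 0.02 M CaCl2; TT used bovine thrombin 10 NIH units/mL. Concentration doubling clotting time estimated by linear extrapolation.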

In series [2] the test system is human or animal plasma. Briefly: Anticoagulation determination in plasma: activated partial thromboplastin time (APTT). The format is biochemical. Conditions: concentration doubling activated partial thromboplastin time. The gist of the method:
as §1

A further series concerns the target t-PA (Homo sapiens, UniProt P00750). Description: biochemical. As to conditions: read-out: Kass t-PA (converted). In a few lines: (§2)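 Amidase activity of human plasmin and t-PA (nt-PA single-chain; mt-PA6) was measured by a chromogenic method adapted from a thrombin assay. Substrates were H-D-Val-Leu-Lys-p-nitroanilide for plasmin and H-D-Ile-Pro-Arg-p-nitroanilide for t-PA.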

The target in a further series is T1, Plasmin (Homo sapiens, UniProt P00747).
T1 construct: Human plasmin is purchased; purchased Boehringer Mannheim, Indianapolis, Indiana
T1 sequence (P00747 581-810 limits assumed): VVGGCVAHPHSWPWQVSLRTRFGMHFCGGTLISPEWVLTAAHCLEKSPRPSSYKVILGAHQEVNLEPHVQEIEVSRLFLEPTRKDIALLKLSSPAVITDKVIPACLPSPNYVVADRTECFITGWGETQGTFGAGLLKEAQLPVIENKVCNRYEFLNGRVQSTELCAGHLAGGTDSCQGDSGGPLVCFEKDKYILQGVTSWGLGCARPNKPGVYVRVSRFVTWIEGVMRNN
T1 sequence (P00747 97-580 partner limits assumed): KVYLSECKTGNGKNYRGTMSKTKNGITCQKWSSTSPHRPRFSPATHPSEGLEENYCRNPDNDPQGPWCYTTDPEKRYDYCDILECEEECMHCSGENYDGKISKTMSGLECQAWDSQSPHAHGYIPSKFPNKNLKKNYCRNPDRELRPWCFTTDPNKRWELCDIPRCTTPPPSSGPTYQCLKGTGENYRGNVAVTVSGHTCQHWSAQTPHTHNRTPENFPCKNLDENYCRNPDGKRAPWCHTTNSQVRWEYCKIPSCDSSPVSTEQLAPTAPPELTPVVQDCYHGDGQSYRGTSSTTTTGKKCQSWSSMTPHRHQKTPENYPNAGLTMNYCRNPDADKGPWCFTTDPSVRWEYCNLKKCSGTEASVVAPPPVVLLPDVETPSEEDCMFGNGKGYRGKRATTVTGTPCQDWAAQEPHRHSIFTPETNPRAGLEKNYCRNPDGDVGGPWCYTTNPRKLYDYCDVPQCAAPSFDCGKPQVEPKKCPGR
Description: biochemical. As to conditions: read-out: Kass Plasmin (converted). The gist of the method:
as §2

A further series deals with T2, Trypsin (Bos taurus, UniProt P00760).
T2 sequence (P00760 24-246): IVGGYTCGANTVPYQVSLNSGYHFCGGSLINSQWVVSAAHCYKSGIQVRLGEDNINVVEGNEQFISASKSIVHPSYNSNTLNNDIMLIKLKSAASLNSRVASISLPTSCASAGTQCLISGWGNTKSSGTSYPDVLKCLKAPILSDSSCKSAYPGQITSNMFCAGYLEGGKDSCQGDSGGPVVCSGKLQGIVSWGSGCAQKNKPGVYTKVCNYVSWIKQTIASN
Briefly: biochemical. Conditions: read-out: Kass Trypsin (converted). Further details: species or system Bovine. In a few lines: (§3)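 Bovine trypsin and human factor Xa amidase activity measured chromogenically, following the human thrombin procedure. Substrates: N-Benzoyl-Ile-Glu-Gly-Arg-p-nitroanilide for factor Xa and N-Benzoyl-Phe-Val-Arg-p-nitroanilide for trypsin. Used for selectivity profiling.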

A further series is described as follows: in vivo. As to conditions: for % oral/i.v. activity (Rat): screening not completed, activity after p.o. dose given in the legend. Further details: species or system rats. An excerpt:
Each sample population represented alternating sequential time points.

The subject of series [3] is human or animal plasma. Briefly: Anticoagulation determination in plasma: thrombin time (TT). The format is biochemical. As to conditions: concentration doubling thrombin time. The gist of the method: as §1
The next series deals with factor Xa (Homo sapiens, UniProt P00742). Briefly: biochemical. Conditions: read-out: Kass Xa (converted). In a few lines: as §3
Sequence of factor Xa (P00742 235-488 limits assumed): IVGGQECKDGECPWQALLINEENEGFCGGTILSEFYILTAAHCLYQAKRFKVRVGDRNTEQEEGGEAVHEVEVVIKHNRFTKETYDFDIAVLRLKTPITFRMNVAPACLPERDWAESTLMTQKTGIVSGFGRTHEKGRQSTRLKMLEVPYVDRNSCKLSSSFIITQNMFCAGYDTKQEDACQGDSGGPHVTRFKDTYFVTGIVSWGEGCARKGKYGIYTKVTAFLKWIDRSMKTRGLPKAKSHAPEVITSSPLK
Sequence of factor Xa (P00742 41-179 partner limits assumed): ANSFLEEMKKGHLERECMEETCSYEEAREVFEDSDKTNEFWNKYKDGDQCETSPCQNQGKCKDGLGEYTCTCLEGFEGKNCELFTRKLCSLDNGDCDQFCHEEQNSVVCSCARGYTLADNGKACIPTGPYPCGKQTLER
Another series has as its target Human Thrombin (Homo sapiens, UniProt P00734). Briefly: biochemical. As to conditions: read-out: Kass Human Thrombin (converted).

Structures can show the parent of a compound that is named as a salt.
Wherever % oral/i.v. activity (Rat) is given: key: NC^1 indicates screening not completed; low or very low activity obsrved at 20 mg/kg p.o; NC^2 indicates screening not completed; low or very low activity observed at 60 mg/kg p.o; NC^3 indicates screening not completed; low or very low activity observed at 50 mg/kg p.o.

Sequence of t-PA (P00750 36-562): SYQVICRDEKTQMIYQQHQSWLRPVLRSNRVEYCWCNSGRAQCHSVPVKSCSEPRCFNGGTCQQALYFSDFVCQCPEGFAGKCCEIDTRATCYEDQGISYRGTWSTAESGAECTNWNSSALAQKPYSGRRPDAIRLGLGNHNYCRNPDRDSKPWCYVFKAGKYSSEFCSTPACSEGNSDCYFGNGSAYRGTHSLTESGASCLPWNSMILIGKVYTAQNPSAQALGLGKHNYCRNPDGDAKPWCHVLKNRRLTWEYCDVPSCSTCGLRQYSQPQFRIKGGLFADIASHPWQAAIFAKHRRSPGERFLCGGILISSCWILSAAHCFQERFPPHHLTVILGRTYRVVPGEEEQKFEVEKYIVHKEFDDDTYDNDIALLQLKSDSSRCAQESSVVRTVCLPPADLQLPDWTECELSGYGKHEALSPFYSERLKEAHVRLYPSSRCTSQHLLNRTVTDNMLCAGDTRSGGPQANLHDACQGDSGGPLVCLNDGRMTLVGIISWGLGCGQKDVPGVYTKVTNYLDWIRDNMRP

For the compound `N=C(N)c1ccc(CNC(=O)[C@@H]2C[C@@H]3CCCC[C@@H]3N2C(=O)[C@H]2CCCCN2)cc1` [Example 20, D-hPro-Ohi-p-NHCH2C6H4C(NH)NH2·3HCl], in the series on human or animal plasma [1], the “Human Plasma Anticoagulation 2x Clotting time (ng/mL) PT” value worked out at 600 ng/mL. The “Human Plasma Anticoagulation 2x Clotting time (ng/mL) APTT” value with human or animal plasma [2] is given as 550 ng/mL. The Kd at t-PA was 130 µM; on Plasmin it was 10 µM; on Trypsin it was 0.0526 µM; at factor Xa, 10 µM; on Human Thrombin, 0.1 µM. Further, the bioavailability (as a rule, dose-corrected exposure relative to a reference, in per cent) in “in vivo” (plasma, rat, oral vs i.v.) was 23%. In the series with human or animal plasma [3], the “Human Plasma Anticoagulation 2x Clotting time (ng/mL) TT” value is on record as 62 ng/mL.

On to `CCS(=O)(=O)N[C@H](Cc1ccccc1)C(=O)N1CCC[C@H]1C(=O)NCCc1ccc(C(=N)N)cc1` [Example 26, EtSO2-D-Phe-Pro-p-NHCH2CH2-C6H4C(=NH)NH2·HCl], for which, in the series with human or animal plasma [1], the “Human Plasma Anticoagulation 2x Clotting time (ng/mL) PT” value was found to be 750 ng/mL. Further, the “Human Plasma Anticoagulation 2x Clotting time (ng/mL) APTT” value with human or animal plasma [2] is on record as 870 ng/mL. The Kd was 100 µM at t-PA; 100 µM at Plasmin; 4.76 µM on Trypsin; 100 µM on factor Xa; 0.0769 µM at Human Thrombin. Moreover, the “% oral/i.v. activity (Rat)” value in “in vivo” is “NC^1”. The “Human Plasma Anticoagulation 2x Clotting time (ng/mL) TT” value in the series on human or animal plasma [3] is recorded as 37 ng/mL.

Consider `N=C(N)c1ccc(CNC(=O)[C@@H]2C[C@@H]3CCCC[C@@H]3N2C(=O)[C@@H]2NCC[C@@H]3CCCC[C@@H]32)cc1` [Example 42, D-1-Piq-cis-Ohi-p-NHCH2C6H4C(NH)NH2·2HCl], for which, in the series on human or animal plasma [1], the “Human Plasma Anticoagulation 2x Clotting time (ng/mL) PT” value is listed as 320 ng/mL. Also, the “Human Plasma Anticoagulation 2x Clotting time (ng/mL) APTT” value in the series with human or animal plasma [2] was 270 ng/mL. In addition, the Kd on t-PA was 100 µM; at Plasmin, 8.33 µM; on Trypsin, 0.0233 µM; on factor Xa, 14.3 µM; at Human Thrombin, 0.0263 µM. The “% oral/i.v. activity (Rat)” value in the series “in vivo” is recorded as “NC^2”. Further, the “Human Plasma Anticoagulation 2x Clotting time (ng/mL) TT” value with human or animal plasma [3] is reported as 20 ng/mL.

For the compound `CCS(=O)(=O)N[C@H](Cc1ccccc1)C(=O)N1[C@H](C(=O)NCc2ccc(C(=N)N)cc2)C[C@@H]2CCCC[C@@H]21` [Example 45, EtSO2-Phe-cis-Ohi-p-NHCH2C6H4C(NH)NH2·HCl], the “Human Plasma Anticoagulation 2x Clotting time (ng/mL) PT” value in the series on human or animal plasma [1] is given as 330 ng/mL. The “Human Plasma Anticoagulation 2x Clotting time (ng/mL) APTT” value in the series on human or animal plasma [2] was determined as 200 ng/mL. The Kd is 1.3 µM at t-PA; 0.909 µM on Plasmin; 0.00909 µM at Trypsin; 0.667 µM at factor Xa; 0.00164 µM on Human Thrombin. Also, in the series “in vivo”, the “% oral/i.v. activity (Rat)” value is recorded as “NC^2”. Also, the “Human Plasma Anticoagulation 2x Clotting time (ng/mL) TT” value in the series with human or animal plasma [3] turned out to be 8 ng/mL.

In the case of `N=C(N)c1ccc(CNC(=O)[C@@H]2C[C@@H]3CCCC[C@@H]3N2C(=O)[C@@H](Cc2ccccc2)NCC(=O)O)cc1` [Example 47, HOOCCH2-D-Phe-cis-Ohi-p-NHCH2C6H4C(NH)NH2·HCl], the “Human Plasma Anticoagulation 2x Clotting time (ng/mL) PT” value with human or animal plasma [1] is 270 ng/mL. In the series on human or animal plasma [2], the “Human Plasma Anticoagulation 2x Clotting time (ng/mL) APTT” value was 140 ng/mL. The Kd at t-PA is 100 µM; on Plasmin it was 5.56 µM; on Trypsin, 0.0122 µM; at factor Xa it was 25 µM; on Human Thrombin, 0.0222 µM. In the series “in vivo”, the “% oral/i.v. activity (Rat)” value is “NC^2”. The “Human Plasma Anticoagulation 2x Clotting time (ng/mL) TT” value with human or animal plasma [3] amounted to 12. ng/mL.

As for `N=C(N)c1ccc(CNC(=O)[C@@H]2C[C@@H]3CCCC[C@@H]3N2C(=O)[C@@H](CC2CCCCC2)NCC(=O)O)cc1` [Example 49, HOOCCH2-D-Cha-cis-Ohi-p-NHCH2C6H4C(NH)NH2·HCl], in the series on human or animal plasma [1], the “Human Plasma Anticoagulation 2x Clotting time (ng/mL) PT” value turned out to be 130 ng/mL. In addition, the “Human Plasma Anticoagulation 2x Clotting time (ng/mL) APTT” value in the series with human or animal plasma [2] is given as 130 ng/mL. The Kd at t-PA is 25 µM; at Plasmin, 1.19 µM; at Trypsin, 0.00106 µM; on factor Xa it was 0.294 µM; on Human Thrombin it was 0.0025 µM. In addition, the “% oral/i.v. activity (Rat)” value in the series “in vivo” was “NC^2”. The “Human Plasma Anticoagulation 2x Clotting time (ng/mL) TT” value in the series on human or animal plasma [3] is 5 ng/mL.
